The values below come from patent US20030211076A1, “Compositions and methods for treatment of proliferative disorders” (priority 2003, published 2003).

The test has as its target T1, lysyl oxidase (LO) (Bos taurus, UniProt P33072).
T1 construct: per mature LO molecule (32 kD); from tissue
T1 sequence (P33072 170-418): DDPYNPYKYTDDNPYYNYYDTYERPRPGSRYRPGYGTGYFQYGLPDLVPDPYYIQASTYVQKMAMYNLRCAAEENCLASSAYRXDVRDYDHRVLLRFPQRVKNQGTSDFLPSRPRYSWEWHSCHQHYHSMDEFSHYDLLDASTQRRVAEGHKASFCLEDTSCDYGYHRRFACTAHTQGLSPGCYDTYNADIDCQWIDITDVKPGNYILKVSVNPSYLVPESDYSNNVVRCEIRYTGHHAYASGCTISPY
The test can be described thus: LO-dependent H2O2 release, horseradish peroxidase-coupled fluorescence assay (substrate potential for LO). The format is biochemical. To be noted: 55° C. and 37° C. As to the method: The oxidation of a primary amine substrate by LO yields stoichiometric amounts of the corresponding aldehyde, hydrogen peroxide and ammonia, as shown: RCH2NH2+O2+H2O→RCHO+H2O2+NH3 (Kagan, 1986). To assess the substrate potential of FGF2, LO-dependent H2O2 release was monitored in assays using FGF2 as the sole substrate, using both the optimum temperature for LO activity of 55° C. and the physiological temperature of 37° C. (Trackman et al., 1981).
LO reaction with FGF2 as a substrate was assessed by a horseradish peroxidase-coupled fluorescence assay for H2O2 production. Reaction mixtures contained 0.25 mg of sodium homovanillate(HVA), 40 μg of HRP, and FGF2 at doses as indicated below in 0.05 M sodium borate buffer, pH 8.2, in a final volume of 2 ml. Assays were initiated by the addition of LO to reaction mixtures. H2O2 release was continuously monitored at excitation and emission wavelengths of 315 and 425 nm, respectively, at a constant temperature of 55° C. or 37° C., as specified, in the thermostatted cuvette chamber of an SLM Aminco Bowman Series 2 Luminescence Spectrometer. All activity data were corrected for background rates of H2O2 release determined in complete assay mixtures supplemented with 200 μM BAPN, an irreversible inhibitor of LO. In FIG. 4, solid curves represent the time course of H2O2 release at 55° C. in the reaction of 0.16 μM LO with 0.23 (a), 0.45 (b) and 0.9 (c) μM FGF2, respectively. Dotted curve (d) represents the time course of H2O2 release in the reaction of 0.16 μM LO with 0.9 μM FGF2 at 37° C. The same data were obtained from three separate experiments.
Using the fluorometric assay (Trackman et al., 1981) to monitor LO-dependent H2O2 release in vitro, the substrate potential of other growth factors was also assessed. Major members of the FGF family tested included FGF 1, 4, 5, 6, 7 and EGF (note: All factors are human recombinant forms purchased from R & D Systems, Inc., Minneapolis, Minn.).
A human recombinant disulfide-linked dimer of VEGF165 (MW: 42 kDa)(R & D Systems) as a sole substrate was tested by using the standard in vitro LO catalysis assays as described above for FIG. 4 (Trackman et al., 1981). Curves represent the time course of H2O2 release at 55° C. (a) or 37° C. (b) in the reaction of 0.10 μM LO with 0.45 μM VEGF165. All activity data were corrected for background rates of H2O2 release determined in complete assay mixtures supplemented with the same amounts of LO preincubated with 100 μM BAPN for 15 min at 37° C. The same data were obtained from three separate experiments.
The standard in vitro LO catalysis assays as described above for FIG. 4 (Trackman et al., 1981) using human recombinant PDGF-AB (R & D Systems) as a sole substrate was tested. […] In FIG. 19, curves represent the time course of H2O2 release at 55° C. (a) and 37° C. (b) in the reaction of 0.11 μM LO with 0.46 μM PDGF-AB, respectively. All activity data were corrected for background rates of H2O2 release determined in complete assay mixtures supplemented with the same amounts of LO preincubated with 100 μM BAPN for 15 minutes at 37° C. The same data were obtained from three separate experiments.
To analyze the substrate potential of Tat, the standard in vitro LO catalysis assays as described in FIG. 4 (Trackman et al., 1981) was performed at the optimum temperature of 55° C. and at the physiological temperature of 37° C. A recombinant Tat with 9 lysines in a total of 86 amino acids was used as a sole substrate. FIG. 12A represents a dose and temperature-dependent response. Curves represent the time course of H2O2 release at 55° C. (solid) or 37° C. (dotted) in the reaction of 0.10 μM LO with 0.22 (a and d), 0.43 (b and e) and 0.85 (c and f) μM Tat, respectively. All activity data were corrected for background rates of H2O2 release determined in complete assay mixtures supplemented with the same amounts of LO preincubated with 100 μM BAPN for 15 min at 37° C. […]

In the case of `N#CCCN` [BAPN, β-Aminopropionitrile, reference compound], the “effect on H2O2 release when added after the reaction of LO with Tat was initiated” value (100 μM BAPN added at 200 seconds) is “failed to block H2O2 release”. Further, for the setting “LO preincubated with 100 μM BAPN for 5 minutes”, the “inhibition of the reaction of LO with Tat” value is reported as “totally inhibited”.
